Test results taken from ChEMBL document CHEMBL3525982, “Metabolism and pharmacokinetics of indacaterol in humans” (Drug Metab Dispos, 2012).

Legend:
Homo sapiens [1] = experiment: AUC (0 to last) in healthy human assessed as total radioactivity at 800 ug, po as single dose by LC-MS/MS analysis; type: ADME, organism-based, Plasma; details: in vivo
Serum [2] = experiment: Drug level in healthy human serum at 800 ug, po as single dose at 2 hrs by HPLC analysis; type: ADME, organism-based; details: in vivo
Serum [3] = experiment: Drug level in healthy human serum at 800 ug, po as single dose at 2 hrs by HPLC analysis relative to total radioactivity; type: ADME, organism-based; details: in vivo
Serum [4] = experiment: AUC (0 to 24 hrs) in healthy human serum at 800 ug, po as single dose by HPLC analysis; type: ADME, organism-based; design: time < 24 hr, dose 800 ug, route oral; details: in vivo
Serum [5] = experiment: AUC (0 to 24 hrs) in healthy human serum at 800 ug, po as single dose by HPLC analysis relative to total radioactivity; type: ADME, organism-based; details: in vivo
Serum [6] = experiment: Drug metabolism in healthy human serum assessed as (2S,3S,4S,5R,6R)-6-((5,6-diethyl-2,3-dihydro-1H-inden-2-yl)((S)-2-hydroxy-2-(8-hydroxy-2-oxo-1,2-dihydroquinolin-5-yl)ethyl)amino)-3,4,5-trihydroxytetrahydro-2H-pyran-2-carboxylic acid formation at 800 ug, po as single dose by HPLC analysis; type: ADME, organism-based; details: in vivo
Serum [7] = experiment: Drug metabolism in healthy human serum assessed as 2-(5,6-diethyl-2,3-dihydro-1H-inden-2-ylamino)acetic acid formation at 800 ug, po as single dose by HPLC analysis; type: ADME, organism-based; details: in vivo
Serum [8] = experiment: Drug metabolism in healthy human serum assessed as 5,6-diethyl-2,3-dihydro-1H-inden-2-amine formation at 800 ug, po as single dose by HPLC analysis; type: ADME, organism-based; details: in vivo
Homo sapiens [9] = experiment: Cmax in healthy human assessed as total radioactivity at 800 ug, po as single dose by LC-MS/MS analysis; type: ADME, organism-based; design: dose 800 ug, route oral; details: in vivo
Homo sapiens [10] = experiment: Tmax in healthy human assessed as total radioactivity at 800 ug, po as single dose by LC-MS/MS analysis; type: ADME, organism-based; details: in vivo
[11] = Drug recovery in healthy human urine assessed as total radioactivity at 800 ug, po as single dose after 168 hrs postdose by liquid scintillation counting; type: ADME, organism-based; details: in vivo
[12] = Drug recovery in healthy human feces assessed as total radioactivity at 800 ug, po as single dose after 168 hrs postdose by liquid scintillation counting; type: ADME, organism-based; details: in vivo
Serum [13] = experiment: Drug level in healthy human serum treated with [14C]indacaterol at 800 ug, po as single dose at 2 hrs by HPLC analysis; type: ADME, organism-based; details: in vivo
Serum [14] = experiment: Drug level in healthy human serum treated with [14C]indacaterol at 800 ug, po as single dose at 2 hrs by HPLC analysis relative to total radioactivity; type: ADME, organism-based; details: in vivo
Serum [15] = experiment: AUC (0 to 24 hrs) in healthy human serum treated with [14C]indacaterol at 800 ug, po as single dose by HPLC analysis; type: ADME, organism-based; design: time < 24 hr, dose 800 ug, route oral; details: in vivo
Serum [16] = experiment: AUC (0 to 24 hrs) in healthy human serum treated with [14C]indacaterol at 800 ug, po as single dose by HPLC analysis relative to total radioactivity; type: ADME, organism-based; details: in vivo
[17] = Drug recovery in healthy human urine treated with [14C]indacaterol at 800 ug, po as single dose after 168 hrs postdose by liquid scintillation counting; type: ADME, organism-based; details: in vivo
[18] = Drug recovery in healthy human feces treated with [14C]indacaterol at 800 ug, po as single dose after 168 hrs postdose by liquid scintillation counting; type: ADME, organism-based; details: in vivo
[19] = Drug recovery in healthy human feces at 800 ug, po as single dose measured after 168 hrs postdose by liquid scintillation counting; type: ADME, organism-based; details: in vivo
Serum [20] = experiment: Drug metabolism in healthy human serum treated with [14C]indacaterol at 800 ug, po as single dose by HPLC analysis; type: ADME, organism-based; details: in vivo
[21] = Cmax in healthy human at 800 ug, po as single dose by LC-MS/MS analysis; type: ADME, organism-based; design: dose 800 ug, route oral; details: in vivo
[22] = Tmax in healthy human at 800 ug, po as single dose by LC-MS/MS analysis; type: ADME, organism-based; details: in vivo
[23] = AUC (0 to 12 hrs) in healthy human at 800 ug, po as single dose by LC-MS/MS analysis; type: ADME, organism-based; design: dose 800 ug, time < 12 hr, route oral; details: plasma
[24] = Drug recovery in healthy human urine at 800 ug, po as single dose after 168 hrs postdose by liquid scintillation counting; type: ADME, organism-based; details: in vivo
[25] = Drug recovery in healthy human feces at 800 ug, po as single dose after 168 hrs postdose by liquid scintillation counting; type: ADME, organism-based; details: in vivo

SMILES | Drug uptake (Serum [13]) | Drug uptake (Serum [14]) | AUC (Serum [15]) | Drug uptake (Serum [16]) | Drug recovery [17] | Drug recovery [18] | Drug recovery [19] | Drug metabolism (Serum [20]) | further results
CCc1cc2c(cc1[14CH2]C)CC(NC[C@H](O)c1ccc(O)c3[nH]c(=O)ccc13)C2 (stereo partly drawn) | – | – | – | – | – | – | – | – | AUClast (Homo sapiens [1]): 27.2 ng.Eq.hr/ml; Drug uptake (Serum [2]): 0.42 ngequiv/ml; Drug uptake (Serum [3]): 31.4%; AUC (Serum [4]): 4.58 ng.Eq.hr/ml; Drug uptake (Serum [5]): 32.5%; Drug metabolism (Serum [6]): metabolite_detected; Drug metabolism (Serum [7]): metabolite_detected; Drug metabolism (Serum [8]): metabolite_detected; Cmax (Homo sapiens [9]): 1.4 ng.Eq/ml; Tmax (Homo sapiens [10]): 2.5 h; Drug recovery [11]: 9.7%; Drug recovery [12]: 85.3%
CCc1cc2c(cc1CC)CC(NC[C@H](O)c1ccc(O[C@@H]3O[C@H](C(=O)O)[C@@H](O)[C@H](O)[C@H]3O)c3[nH]c(=O)ccc13)C2 | 0.1 ngequiv/ml | 7.42% | 0.6 ng.Eq.hr/ml | 4.22% | 0.53% | 0% | – | – | –
CCc1cc2c(cc1C(C)O)CC(NC[C@H](O)c1ccc(O)c3[nH]c(=O)ccc13)C2 (stereo in doubt; P26.9) | 0.18 ngequiv/ml | 13.2% | 1.8 ng.Eq.hr/ml | 12.4% | 1.24% | 17.44% | 17% | – | –
CCc1cc2c(cc1CC)CC(N)C2 | – | – | – | – | 0% | 1.7% | <= 6% | metabolite_detected | –
CCc1cc2c(cc1C(C)O)CC(NC[C@H](O)c1ccc(O[C@@H]3O[C@H](C(=O)O)[C@@H](O)[C@H](O)[C@H]3O)c3[nH]c(=O)ccc13)C2 (stereo partly drawn) | 0.12 ngequiv/ml | 9.31% | 0.82 ng.Eq.hr/ml | 5.78% | 0.83% | 0% | – | – | –
CCc1cc2c(cc1C(C)O)CC(NC[C@H](O)c1ccc(O)c3[nH]c(=O)ccc13)C2 (stereo in doubt; P30.3) | – | – | – | – | 0.31% | 6.33% | <= 6% | – | –
CCc1cc2c(cc1CC)CC(NCC(=O)O)C2 | – | – | – | – | 0.97% | 0% | – | metabolite_detected | –
CCc1cc2c(cc1CC)CC(N(C[C@H](O)c1ccc(O)c3[nH]c(=O)ccc13)[C@@H]1O[C@H](C(=O)O)[C@@H](O)[C@H](O)[C@H]1O)C2 | – | – | – | – | – | – | – | metabolite_detected | –
CCc1cc2c(cc1CC)CC(NC[C@H](O)c1ccc(O)c3[nH]c(=O)ccc13)C2.O=C(O)/C=C\C(=O)O [INDACATEROL MALEATE] | – | – | – | – | – | – | 54% | – | Cmax [21]: 0.47 ng/mL; Tmax [22]: 1.75 h; AUC(0-t) at 12 h [23]: 1.81 ng·h/mL; Drug recovery [24]: 0.34%; Drug recovery [25]: 54.42%
